How the values were obtained:
Colon 38 cells [1] = experiment: Anti-tumor activity testing 4: tumor-growth inhibition of subcutaneous Colon 38, intravenous injection; type: in vivo, Female BDF mice; conditions: 21 days after transplantation
Source text: Female BDF mice of 5-week age were used as test animals (eight head for each group).

L1210 cells [2] = experiment: Growth inhibition of L1210 cells ([3H]-thymidine uptake); type: cell-based, mouse; conditions: 46 h incubation plus 2 h with [3H]-thymidine, 37° C.
Description: (§1) L1210 cells and cisplatin-resistant L1210 cells under subcultivation were incubated in RPMI1640 medium containing 10% fetal bovine serum at 37° C. for 46 hours in an atmosphere containing 5% carbon dioxide. [^3 H]-thymidine was added to the grown cells, and incubation was continued for an additional two hours. The growth inhibition rate of a drug was calculated from the amounts of [^3 H]-thymidine taken into the cells in the presence and absence of that drug, and the 50% growth inhibition concentration (IC50) was determined from the graph of inhibition rate plotted against drug concentration. The degree of drug resistance was calculated from the ratio of IC50 for cisplatin-resistant L1210 cells to that for L1210 cells.

[3] = system: cisplatin-resistant L1210 cells; experiment: Growth inhibition of cisplatin-resistant L1210 cells ([3H]-thymidine uptake); type: cell-based, mouse; conditions: for IC50: 46 h incubation plus 2 h with [3H]-thymidine, 37° C.; for Degree of Resistance: ratio of IC50 for cisplatin-resistant L1210 cells to that for L1210 cells, 2880 min
Description: as §1

[4] = cited from earlier work
Sarcoma-180 cells = experiment: Anti-tumor activity testing 1: life-prolonging rate in mice transplanted intraperitoneally with Sarcoma-180 cells; type: in vivo, Female ICR/CRJ mice; conditions: day after transplantation
Description: Female ICR/CRJ mice of 5-week age were used as test animals (five head for each group).
(§2) Sarcoma-180 cells (1×10^6) were intraperitoneally transplanted to each of the test animals, each of the Pt(II) complexes listed in Table 1 was then injected intraperitoneally on the next day, and the life-prolonging rate was measured for each test group. Physiologically saline was used as the solvent of injections.

L1210 cells [5] = experiment: Anti-tumor activity testing 2: life-prolonging rate in mice transplanted intraperitoneally with L1210 cells; type: in vivo, Female BDF1 mice; conditions: days 1, 5 and 9
Description: Female BDF1 mice of 5-week age were used as test animals (five head for each group).
as §2, with “L1210” for “Sarcoma-180”, “(1×10^5)” for “(1×10^6)”, “2” for “1”, “one” for “on the next”, “day, five days and nine days after transplantation (a total of three times),” for “day,”

Colon 38 cells [6] = experiment: Anti-tumor activity testing 3: tumor-growth inhibition of subcutaneous Colon 38, intraperitoneal injection; type: in vivo, female BDF mice; conditions: days 1, 8 and 15, 21 days after transplantation
Description: female BDF mice of 5-week age were used as test animals (five head for each group).
Colon 38 cells (40 mg) were subcutaneously transplanted to each of the test animals at the haunch, each of the Pt(II) complexes listed in Table 3 was then injected intraperitoneally 1 day, 8 days and 15 days after transplantation (a total of three times), and the tumor-growth inhibition rate was measured for each test group 21 days after transplantation.

[7] = Solubility in physiological saline; type: physicochemical

| Solubility [7] | Compound | Tumor-growth Inhibition Rate (Colon 38 cells [1]; 2 mg/kg × 6, i.v.) | Tumor-growth Inhibition Rate (Colon 38 cells [1]; 4 mg/kg × 6, i.v.) | Tumor-growth Inhibition Rate (Colon 38 cells [1]; 8 mg/kg × 6, i.v.) | Tumor-growth Inhibition Rate (Colon 38 cells [1]; 16 mg/kg × 6, i.v.) | IC50 (L1210 cells [2]) | IC50 [3] | Degree of Resistance [3] | Tumor-growth Inhibition Rate (Colon 38 cells [1]; 1 mg/kg × 6, i.v.) | anti-tumor activity (in words) ([4]; Nature, 222, 385 (1969)) | side effects (in words) ([4]; clinical use) | Life-prolonging Rate (Sarcoma-180 cells; 4.0 mg/Kg × 1, i.p.) | Life-prolonging Rate (Sarcoma-180 cells; 8.0 mg/Kg × 1, i.p.) | Life-prolonging Rate (Sarcoma-180 cells; 16.0 mg/Kg × 1, i.p.) | Life-prolonging Rate (L1210 cells [5]; 7.5 μmol/Kg × 3, i.p.) | Life-prolonging Rate (L1210 cells [5]; 15.0 μmol/Kg × 3, i.p.) | Life-prolonging Rate (L1210 cells [5]; 30.0 μmol/Kg × 3, i.p.) | Tumor-growth Inhibition Rate (Colon 38 cells [6]; 20.0 μmol/Kg × 3, i.p.) | Tumor-growth Inhibition Rate (Colon 38 cells [6]; 30.0 μmol/Kg × 3, i.p.) | Tumor-growth Inhibition Rate (Colon 38 cells [6]; 45.0 μmol/Kg × 3, i.p.) |
| --- | --- | --- | --- | --- | --- | --- | --- | --- | --- | --- | --- | --- | --- | --- | --- | --- | --- | --- | --- | --- |
|  | NC1CCCC(O)C1N.O=S1(=O)[O][Pt][O]1 (single isomer, unassigned; (+)) [Compound No. 8, (+)-Cis-sulfato-(1/2,3)-2,3-diaminocyclohexanol-platinum(II)] | 34% | 35% | 61% | 91% |  |  |  |  |  |  |  |  |  |  |  |  |  |  |  |
|  | NC1CCCC(O)C1N.O=S1(=O)[O][Pt][O]1 (single isomer, unassigned; (-)) [Compound No. 9] | 40% | 88% | 88% | toxic |  |  |  |  |  |  |  |  |  |  |  |  |  |  |  |
|  | N.N.[Cl][Pt][Cl] [Cisplatin, cis-dichlorodiamineplatinum(II), reference compound] | 58% | 84% | toxic |  | 1 µM | 10.5 µM | 10.5 | 19% | high anti-tumor activity | severe side effects, such as toxicity to the kidney, nausea, emesis and bradyacusia |  |  |  |  |  |  |  |  |  |
|  | O=C1[O][Pt]2([NH]C3CCCC(O)C3[NH]2)[O]C1=O (stereo not drawn) [Compound No. 1, Cis-oxalato-(1/2,3)-2,3-diamino-1-cyclohexanolplatinum(II)] |  |  |  |  | 3.5 µM | 6.6 µM | 1.9 |  |  |  | 189% | 218% | 266% | 115% | 115% | 132% | 24% | 16% | 45% |
| > 20.0 mg/mL | NC1CCCC(O)C1N.O=S(=O)([O-])[O-].[Pt+2] (stereo not drawn) [Compound No. 2, Cis-sulfato-(1/2,3)-2,3-diamino-1-cyclohexanolplatinum(II)] | 22% | 41% | 90% | toxic | 1.7 µM | 3.2 µM | 1.9 |  |  |  | 295% | 532% | 534% | 136% | 134% | 151% | 47% | 78% | 97% |
